SMILES strings stand for the structures.

Results on 24 compounds are retold here after US20250092031A1, “RIPK3 INHIBITORS AND METHODS OF USE” (Momentum Therapeutics, Inc., priority 2023, published 2025).

One assay has as its system Murine L929 cells. The assay can be described thus: Necroptosis inhibition assay in L929 cells (mTNFα + zVAD, Sytox Green). The settings on record: Mus musculus, 10 ng/ml mTNFα and 20 μM zVAD, 6 hours, Sytox Green fluorescence. The assay is classed as cell-based. The protocol:
Murine L929 cells (ATCC-CCL-1) were seeded at 10,000 cells/well in a 96-well plate. Cells were treated 48 hours after seeding with 10 ng/ml mTNFα (R&D Systems) and 20 μM zVAD (ChemShuttle) in the presence of different concentrations of compounds ranging from […] to 0.01 μM. Cells treated with 0.1% DMSO or cells treated with TNFα+zVAD were used as control and vehicle respectively.
Assay plates containing cells were incubated for 6 hours at 37° C. and 5% CO2. Necroptosis was assessed using Sytox Green Nucleic Acid Stain (Invitrogen). After incubation, 100 μL of Sytox dye at 2 μM (2×) diluted in HBSS 1× was added in each well and incubated for 15 min at room temperature. Fluorescence (500ex/530em) was recorded using the Cytation 5 microplate reader (Biotek).
(§1) Percentage of necroptosis inhibition was calculated as the percent compared to control and vehicle conditions which correspond to 100% and 0% respectively. The half-maximum necroptosis inhibition (IC50) levels were calculated using GraphPad Prism software and are shown in Table 3 (NT represents compound not tested).

The subject of another assay is Human HT-29 cells. The assay can be described thus: Necroptosis inhibition assay in HT-29 cells (hTNFα + zVAD + SMAC mimetic, Sytox Green/Hoechst). The assay is classed as cell-based. The settings on record: 10 ng/ml hTNFα, 20 μM zVAD and 100 nM SMAC mimetic, 6 hours, Sytox/Hoechst positive cells, read-out: HT29 necroptosis inhibition IC50. The method, then: Human HT-29 cells (ATCC-HTB-38) were seeded at 10,000 cells/well in a 96-well plate. Cells were treated 48 hours after seeding with 10 ng/ml hTNFα (R&D Systems), 20 μM zVAD (ChemShuttle) and 100 nM SMAC mimetic (MedChem Express) in the presence of different concentrations of compounds ranging from […] to 0.01 μM. Cells treated with 0.1% DMSO or cells treated with TNFα+zVAD+SMAC mimetic were used as control and vehicle respectively.
Assay plates containing cells were incubated for 6 hours at 37° C. and 5% CO2. Necroptosis was assessed using Sytox Green Nucleic Acid Stain (Invitrogen) and Hoechst staining. After incubation, 100 μL of Sytox dye at 2 μM (2×) diluted in HBSS 1× was added to each well. At the same time, Hoechst stain is added to a final concentration of 10 μM and incubated for 15 min at room temperature. Images were taken for Sytox and Hoechst using the Cytation 5 microplate reader with DAPI and GFP filter cubes (Biotek). Sytox and Hoechst positive cells were counted with CellProfiler software.
as §1

A word on the IC50: it is the point on the concentration scale where inhibition reaches its midpoint. `Fc1cc(CN2CCC3(CCNCC3)CC2)ccc1-c1ccc2nccc(Nc3ccc4scnc4c3)c2c1` [Compound 290, N-(6-(4-((3,9-diazaspiro[5.5]undecan-3-yl)methyl)-2-fluorophenyl)quinolin-4-yl)benzo[d]thiazol-5-amine]: the IC50 was less than 10000 nM with Murine L929 cells and less than 1000 nM in the assay on Human HT-29 cells.

For the compound `Fc1cc(CN2CCC3(CCNCC3)CC2)ccc1-c1ccc2c(Nc3ccc4scnc4c3)ccnc2c1` [Compound 291, N-(7-(4-((3,9-diazaspiro[5.5]undecan-3-yl)methyl)-2-fluorophenyl)quinolin-4-yl)benzo[d]thiazol-5-amine], the 50% inhibitory concentration (IC50) with Murine L929 cells was less than 10000 nM; in the assay on Human HT-29 cells it was less than 1000 nM.

`C[C@@H]1CN(C(=O)c2ccc(-c3ccc4nccc(Nc5ccc6scnc6c5)c4c3)c(F)c2)C[C@H](C)N1` [Compound 293, (4-(4-(benzo[d]thiazol-5-ylamino)quinolin-6-yl)-3-fluorophenyl)((3R,5S)-3,5-dimethylpiperazin-1-yl)methanone]: the IC50 in the assay on Murine L929 cells was 347 nM; with Human HT-29 cells, 32.3 nM.

Turning to `Fc1cc(OC2CCNCC2)ccc1-c1ccc2nccc(Nc3ccc4scnc4c3)c2c1` [Compound 295, N-(6-(2-fluoro-4-(piperidin-4-yloxy)phenyl)quinolin-4-yl)benzo[d]thiazol-5-amine], the IC50 with Murine L929 cells stood at 781 nM; in the assay with Human HT-29 cells, 147 nM.

As to `Cc1cc(-c2ccc3nccc(Nc4ccc5scnc5c4)c3c2)c(F)cc1C(=O)N1CCNCC1` [Compound 296, (4-(4-(benzo[d]thiazol-5-ylamino)quinolin-6-yl)-5-fluoro-2-methylphenyl)(piperazin-1-yl)methanone], the IC50 in the assay on Murine L929 cells stood at 1290 nM; in the assay with Human HT-29 cells, 16.9 nM.

With `Cc1cc(-c2ccc3c(Nc4ccc5scnc5c4)ccnc3c2)c(F)cc1C(=O)N1CCNCC1` [Compound 297, (4-(4-(benzo[d]thiazol-5-ylamino)quinolin-7-yl)-5-fluoro-2-methylphenyl)(piperazin-1-yl)methanone], the values for the concentration for half-maximal inhibition (IC50) with Murine L929 cells and in the assay on Human HT-29 cells were 282 nM and 174 nM, respectively.

With `Fc1cc(CN2CC3CNCC3C2)ccc1-c1ccc2nccc(Nc3ccc4scnc4c3)c2c1` (stereo not drawn) [Compound 299, N-(6-(2-fluoro-4-((hexahydropyrrolo[3,4-c]pyrrol-2(1H)-yl)methyl)phenyl)quinolin-4-yl)benzo[d]thiazol-5-amine], the concentration for half-maximal inhibition (IC50) in the assay on Murine L929 cells is 987 nM; in the assay on Human HT-29 cells, 462 nM.

As for `Fc1cc(CN2CC3CNCC3C2)ccc1-c1ccc2c(Nc3ccc4scnc4c3)ccnc2c1` (stereo not drawn) [Compound 300, N-(7-(2-fluoro-4-((hexahydropyrrolo[3,4-c]pyrrol-2(1H)-yl)methyl)phenyl)quinolin-4-yl)benzo[d]thiazol-5-amine], the half-inhibitory concentration (IC50) in the assay on Murine L929 cells was 461 nM; with Human HT-29 cells it was 721 nM.

For `O=C(c1ccc(-c2ccc3c(Nc4ccc5scnc5c4)ccnc3c2)c(F)c1)N1C[C@@H]2C[C@H]1CN2` [Compound 301, (4-(4-(benzo[d]thiazol-5-ylamino)quinolin-7-yl)-3-fluorophenyl)((1S,4S)-2,5-diazabicyclo[2.2.1]heptan-2-yl)methanone], the IC50 in the assay on Murine L929 cells is 427 nM; in the assay on Human HT-29 cells, 197 nM.

Turning to `O=C(c1ccc(-c2ccc3c(Nc4ccc5scnc5c4)ccnc3c2)cc1F)N1CC2CNCC2C1` (stereo not drawn) [Compound 303, (4-(4-(benzo[d]thiazol-5-ylamino)quinolin-7-yl)-2-fluorophenyl)(hexahydropyrrolo[3,4-c]pyrrol-2(1H)-yl)methanone], the IC50 with Murine L929 cells is 977 nM; in the assay with Human HT-29 cells, 690 nM.

With `O=C(c1ccc(-c2ccc3nccc(Nc4ccc5scnc5c4)c3c2)cc1F)N1CC2CNCC2C1` (stereo not drawn) [Compound 305, (4-(4-(benzo[d]thiazol-5-ylamino)quinolin-6-yl)-2-fluorophenyl)(hexahydropyrrolo[3,4-c]pyrrol-2(1H)-yl)methanone], the IC50 in the assay on Murine L929 cells was greater than 10000 nM; with Human HT-29 cells, 402 nM.

Consider `O=C(c1ccc(-c2ccc3nccc(Nc4ccc5scnc5c4)c3c2)c(F)c1)N1C[C@H]2CNC[C@H]2C1` [Compound 306, (4-(4-(benzo[d]thiazol-5-ylamino)quinolin-6-yl)-3-fluorophenyl)((3aR,6aS)-hexahydropyrrolo[3,4-c]pyrrol-2(1H)-yl)methanone], for which the values for the IC50 in the assay with Murine L929 cells and in the assay on Human HT-29 cells were less than 10000 nM and 148 nM, respectively.

For the compound `O=C(c1ccc(-c2ccc3c(Nc4ccc5scnc5c4)ccnc3c2)c(F)c1)N1C[C@H]2CNC[C@H]2C1` [Compound 307, (4-(4-(benzo[d]thiazol-5-ylamino)quinolin-7-yl)-3-fluorophenyl)((3aR,6aS)-hexahydropyrrolo[3,4-c]pyrrol-2(1H)-yl)methanone], the values for the IC50 in the assay on Murine L929 cells and in the assay with Human HT-29 cells were 774 nM and 271 nM, respectively.

On to `NC1CN(C(=O)c2ccc(-c3ccc4c(Nc5ccc6scnc6c5)ccnc4c3)c(F)c2)C1` [Compound 310, (3-aminoazetidin-1-yl)(4-(4-(benzo[d]thiazol-5-ylamino)quinolin-7-yl)-3-fluorophenyl)methanone], for which the half-maximal inhibitory concentration (IC50) with Murine L929 cells is 663 nM; in the assay with Human HT-29 cells, 294 nM.

`Fc1cc(OC2CC3(CNC3)C2)ccc1-c1ccc2nccc(Nc3ccc4scnc4c3)c2c1` [Compound 311, N-(6-(4-(2-azaspiro[3.3]heptan-6-yloxy)-2-fluorophenyl)quinolin-4-yl)benzo[d]thiazol-5-amine]: the IC50 amounted to 1030 nM in the assay with Murine L929 cells and 732 nM with Human HT-29 cells.

With `O=C(c1ccc(-c2ccc3c(Nc4ccc5scnc5c4)ccnc3c2)c(Cl)c1)N1CC2(CNC2)C1` [Compound 312, (4-(4-(benzo[d]thiazol-5-ylamino)quinolin-7-yl)-3-chlorophenyl)(2,6-diazaspiro[3.3]heptan-2-yl)methanone], the IC50 in the assay on Murine L929 cells worked out at 668 nM; in the assay on Human HT-29 cells it was 1560 nM.

Consider `O=C(c1ccc(-c2ccc3c(Nc4ccc5scnc5c4)ccnc3c2)c(F)c1)N1[C@@H]2CNC[C@H]1C2` [Compound 313, (4-(4-(benzo[d]thiazol-5-ylamino)quinolin-7-yl)-3-fluorophenyl)((1R,5S)-3,6-diazabicyclo[3.1.1]heptan-6-yl)methanone], for which the values for the IC50 in the assay on Murine L929 cells and in the assay on Human HT-29 cells were 402 nM and 302 nM, respectively.

For the compound `CN1CCN(C(=O)c2ccc(-c3ccc4nccc(Nc5ccc6scnc6c5)c4c3)c(F)c2)CC1(C)C` [Compound 315, (4-(4-(benzo[d]thiazol-5-ylamino)quinolin-6-yl)-3-fluorophenyl)(3,3,4-trimethylpiperazin-1-yl)methanone], the IC50 with Murine L929 cells amounted to 396 nM; in the assay with Human HT-29 cells, 120 nM.

As to `CS(=O)(=O)N1CC2(CN(C(=O)c3ccc(-c4ccc5nccc(Nc6ccc7scnc7c6)c5c4)c(F)c3)C2)C1` [Compound 316, (4-(4-(benzo[d]thiazol-5-ylamino)quinolin-6-yl)-3-fluorophenyl)(6-(methylsulfonyl)-2,6-diazaspiro[3.3]heptan-2-yl)methanone], the 50% inhibitory concentration (IC50) in the assay with Murine L929 cells was found to be 1580 nM; in the assay with Human HT-29 cells, 269 nM.

On to `O=C(c1ccc(-c2ccc3nccc(Nc4ccc5scnc5c4)c3c2)c(F)c1)N1CCC(O)CC1` [Compound 317, (4-(4-(benzo[d]thiazol-5-ylamino)quinolin-6-yl)-3-fluorophenyl)(4-hydroxypiperidin-1-yl)methanone], for which the values for the IC50 with Murine L929 cells and in the assay with Human HT-29 cells were 707 nM and 169 nM, respectively.

Take `CC1(O)CCN(C(=O)c2ccc(-c3ccc4nccc(Nc5ccc6scnc6c5)c4c3)c(F)c2)CC1` [Compound 318, (4-(4-(benzo[d]thiazol-5-ylamino)quinolin-6-yl)-3-fluorophenyl)(4-hydroxy-4-methylpiperidin-1-yl)methanone]: the values for the half-maximal inhibitory concentration (IC50) in the assay with Murine L929 cells and in the assay with Human HT-29 cells were 686 nM and 53.7 nM, respectively.

Consider `CC1(O)CCN(Cc2ccc(-c3ccc4nccc(Nc5ccc6scnc6c5)c4c3)c(F)c2)CC1` [Compound 319, 1-(4-(4-(benzo[d]thiazol-5-ylamino)quinolin-6-yl)-3-fluorobenzyl)-4-methylpiperidin-4-ol], for which the IC50 in the assay on Murine L929 cells amounted to 301 nM; in the assay on Human HT-29 cells it was 284 nM.

For the compound `CNC(=O)CNCc1ccc(-c2ccc3nccc(Nc4ccc5scnc5c4)c3c2)c(F)c1` [Compound 320, 2-((4-(4-(benzo[d]thiazol-5-ylamino)quinolin-6-yl)-3-fluorobenzyl)amino)-N-methylacetamide], the figures for the half-maximal inhibitory concentration (IC50) with Murine L929 cells and in the assay on Human HT-29 cells were 444 nM and 243 nM, respectively.

With `COC1CCN(C(=O)c2ccc(-c3ccc4nccc(Nc5ccc6scnc6c5)c4c3)c(F)c2)CC1` [Compound 321, (4-(4-(benzo[d]thiazol-5-ylamino)quinolin-6-yl)-3-fluorophenyl)(4-methoxypiperidin-1-yl)methanone], the half-inhibitory concentration (IC50) with Murine L929 cells amounted to 238 nM; in the assay with Human HT-29 cells, 109 nM.
